Data as given in the NIST ThermoML archive (doi:10.1021/je900596d).
Numbers after ± are expanded uncertainties.

Details: Liquid; for mass density: Vibrating tube method; for vapor or sublimation pressure: Closed cell (Static) method

FC(F)=C(F)C(F)(F)F [hexafluoropropene]
Details | mass density [kg/m3]
263.49 K, 9976.6 kPa | 1506.02 ± 1.6
283.17 K, 467.7 kPa | 1382.09 ± 1.4
283.17 K, 472.9 kPa | 1382.09 ± 1.4
283.17 K, 473.5 kPa | 1382.21 ± 1.4
283.17 K, 478.6 kPa | 1382.26 ± 1.4
283.17 K, 483 kPa | 1382.29 ± 1.4
283.17 K, 491.9 kPa | 1382.32 ± 1.4
283.17 K, 493.1 kPa | 1382.39 ± 1.4
283.17 K, 504.9 kPa | 1382.43 ± 1.4
283.17 K, 526.8 kPa | 1382.57 ± 1.4
283.17 K, 533.6 kPa | 1382.61 ± 1.4
283.17 K, 540.4 kPa | 1382.7 ± 1.4
283.17 K, 548.7 kPa | 1382.78 ± 1.4
283.17 K, 574 kPa | 1382.98 ± 1.4
283.17 K, 583 kPa | 1382.99 ± 1.4
283.17 K, 602 kPa | 1383.21 ± 1.4
283.17 K, 637 kPa | 1383.38 ± 1.4
283.17 K, 662.9 kPa | 1383.6 ± 1.4
283.17 K, 691.4 kPa | 1383.74 ± 1.4
283.17 K, 716 kPa | 1383.92 ± 1.4
283.17 K, 731.4 kPa | 1384.12 ± 1.4
283.17 K, 751.9 kPa | 1384.27 ± 1.4
283.17 K, 766.8 kPa | 1384.29 ± 1.4
283.17 K, 790.1 kPa | 1384.57 ± 1.4
283.17 K, 833.3 kPa | 1384.9 ± 1.4
283.17 K, 856.3 kPa | 1384.98 ± 1.4
283.17 K, 882.3 kPa | 1385.18 ± 1.4
283.17 K, 902.7 kPa | 1385.3 ± 1.4
283.17 K, 924.8 kPa | 1385.58 ± 1.4
283.17 K, 945.6 kPa | 1385.66 ± 1.4
283.17 K, 965.5 kPa | 1385.81 ± 1.4
283.17 K, 988.4 kPa | 1386.02 ± 1.4
283.17 K, 1017 kPa | 1386.11 ± 1.4
283.17 K, 1047.4 kPa | 1386.36 ± 1.4
283.17 K, 1072.3 kPa | 1386.5 ± 1.4
283.17 K, 1098.6 kPa | 1386.88 ± 1.4
283.17 K, 1125.8 kPa | 1386.96 ± 1.4
283.17 K, 1165.1 kPa | 1387.2 ± 1.4
283.17 K, 1199.3 kPa | 1387.58 ± 1.4
283.17 K, 1251 kPa | 1387.98 ± 1.4
283.17 K, 1286 kPa | 1388.12 ± 1.4
283.17 K, 1320.8 kPa | 1388.36 ± 1.4
283.17 K, 1354.8 kPa | 1388.62 ± 1.4
283.17 K, 1394.7 kPa | 1388.89 ± 1.4
283.17 K, 1427.8 kPa | 1389.18 ± 1.4
283.17 K, 1463.5 kPa | 1389.43 ± 1.4
283.17 K, 1507.4 kPa | 1389.74 ± 1.4
283.17 K, 1549.2 kPa | 1389.92 ± 1.4
283.17 K, 1591 kPa | 1390.31 ± 1.4
283.17 K, 1634.6 kPa | 1390.61 ± 1.4
283.17 K, 1720.9 kPa | 1391.22 ± 1.4
283.17 K, 1765.5 kPa | 1391.52 ± 1.4
283.17 K, 1806 kPa | 1391.83 ± 1.4
283.17 K, 1849 kPa | 1391.99 ± 1.4
283.17 K, 1895 kPa | 1392.44 ± 1.4
283.17 K, 1935.4 kPa | 1392.64 ± 1.4
283.17 K, 1975.7 kPa | 1392.98 ± 1.4
283.17 K, 2022.9 kPa | 1393.24 ± 1.4
283.17 K, 2076.3 kPa | 1393.62 ± 1.4
283.17 K, 2128.3 kPa | 1394 ± 1.4
283.17 K, 2174.7 kPa | 1394.46 ± 1.4
283.17 K, 2219 kPa | 1394.73 ± 1.4
283.17 K, 2306.2 kPa | 1395.23 ± 1.4
283.17 K, 2350.5 kPa | 1395.59 ± 1.4
283.17 K, 2406.1 kPa | 1396.02 ± 1.4
283.17 K, 2455.4 kPa | 1396.26 ± 1.4
283.17 K, 2506.6 kPa | 1396.64 ± 1.4
283.17 K, 2551.5 kPa | 1396.81 ± 1.4
283.17 K, 2593.9 kPa | 1397.25 ± 1.4
283.17 K, 2644 kPa | 1397.48 ± 1.4
283.17 K, 2684 kPa | 1397.73 ± 1.4
283.17 K, 2734.9 kPa | 1398.07 ± 1.4
283.17 K, 2785.7 kPa | 1398.39 ± 1.4
283.17 K, 2848.1 kPa | 1398.74 ± 1.4
283.17 K, 2900.4 kPa | 1399.13 ± 1.4
283.17 K, 2951 kPa | 1399.5 ± 1.4
283.17 K, 3020.7 kPa | 1400.01 ± 1.4
283.17 K, 3136.8 kPa | 1400.76 ± 1.4
283.17 K, 3180.2 kPa | 1400.96 ± 1.4
283.17 K, 3236.8 kPa | 1401.44 ± 1.4
283.17 K, 3291.9 kPa | 1401.74 ± 1.4
283.17 K, 3350 kPa | 1402.05 ± 1.4
283.17 K, 3394.2 kPa | 1402.39 ± 1.4
283.17 K, 3434.9 kPa | 1402.61 ± 1.4
283.17 K, 3476.3 kPa | 1403.01 ± 1.4
283.17 K, 3535.7 kPa | 1403.26 ± 1.4
283.17 K, 3591.4 kPa | 1403.66 ± 1.4
283.17 K, 3653.3 kPa | 1403.98 ± 1.4
283.17 K, 3709.6 kPa | 1404.3 ± 1.4
283.17 K, 3821.9 kPa | 1405.06 ± 1.4
283.17 K, 3864.3 kPa | 1405.48 ± 1.4
283.17 K, 3907.8 kPa | 1405.66 ± 1.4
283.17 K, 3949 kPa | 1405.94 ± 1.4
283.17 K, 4020.4 kPa | 1406.43 ± 1.4
283.17 K, 4078.5 kPa | 1406.71 ± 1.4
283.17 K, 4127.6 kPa | 1407.05 ± 1.4
283.17 K, 4182.4 kPa | 1407.4 ± 1.4
283.17 K, 4239.6 kPa | 1407.72 ± 1.4
283.17 K, 4293.4 kPa | 1408.17 ± 1.4
283.17 K, 4409.9 kPa | 1408.82 ± 1.4
283.17 K, 4465.6 kPa | 1409.18 ± 1.4
283.17 K, 4516.2 kPa | 1409.47 ± 1.4
283.17 K, 4620.4 kPa | 1410.09 ± 1.4
283.17 K, 4676.1 kPa | 1410.42 ± 1.4
283.17 K, 4728.4 kPa | 1410.73 ± 1.4
283.17 K, 4783.7 kPa | 1411.1 ± 1.4
283.17 K, 4835.3 kPa | 1411.33 ± 1.4
283.17 K, 4889.5 kPa | 1411.65 ± 1.4
283.17 K, 4943.6 kPa | 1412.08 ± 1.4
283.17 K, 4996 kPa | 1412.33 ± 1.4
283.17 K, 5057.6 kPa | 1412.68 ± 1.4
283.17 K, 5126.3 kPa | 1413.1 ± 1.4
283.17 K, 5167.5 kPa | 1413.34 ± 1.4
283.17 K, 5237.5 kPa | 1413.76 ± 1.4
283.17 K, 5303.9 kPa | 1414.14 ± 1.4
283.17 K, 5372.7 kPa | 1414.61 ± 1.4
283.17 K, 5504.1 kPa | 1415.44 ± 1.4
283.17 K, 5572.6 kPa | 1415.73 ± 1.4
283.17 K, 5644.7 kPa | 1416.12 ± 1.4
283.17 K, 5720.2 kPa | 1416.66 ± 1.4
283.17 K, 5786.5 kPa | 1416.98 ± 1.4
283.17 K, 5855.5 kPa | 1417.42 ± 1.4
283.17 K, 5920.9 kPa | 1417.74 ± 1.4
283.17 K, 5997.2 kPa | 1418.2 ± 1.4
283.17 K, 6065.1 kPa | 1418.58 ± 1.4
283.17 K, 6130.5 kPa | 1419 ± 1.4
283.17 K, 6196 kPa | 1419.33 ± 1.4
283.17 K, 6260.9 kPa | 1419.73 ± 1.4
283.17 K, 6326.3 kPa | 1420.11 ± 1.5
283.17 K, 6398.7 kPa | 1420.44 ± 1.5

Details | vapor or sublimation pressure [kPa]
268.24 K | 272 ± 1.1
273.24 K | 326.8 ± 1.2
278.21 K | 389 ± 1.3
278.22 K | 388.6 ± 1.3
